Each block holds one compound with its values, some of them ahead of it.
Columns and labels:
[1] = Stability of analytes in rat plasma QC samples (auto-sampler, freeze-thaw, short-time, long-term); format: in vitro ADME; conditions: rat, plasma
Description: (§1) The stabilities (including auto-sampler, freeze–thaw cycles, and short-time and long-term stability) of all analytes were obtained by testing QC samples of four concentrations. Moreover, the stabilities for stock and working solution were assessed with mixed standard substance (100 ng·ml^−1) and the QC sample solutions of four concentration levels, respectively. These solutions were achieved by diluting stock solutions kept at 4°C for 2 weeks. For IS, the evaluated procedures of two stabilities were same as the five alkaloids.

[2] = Stability of stock and working solutions; format: physicochemical; conditions: for Remain, working solution: n = 6
Description: as §1

[3] = Pharmacokinetics of five alkaloids in rat plasma after oral administration of lotus leaf extract; format: in vivo, Male Sprague-Dawley rats; conditions: rat, in vivo, po
Description: All analyses were performed on Agilent 1200 HPLC system (Agilent Corporation, USA) and API 3200 triple-quadrupole mass spectrometer (Concord, Ontario, Canada) in multiple-reaction monitoring (MRM) with positive ionization mode. Acetonitrile (A) and formic acid aqueous solution (B) (0.1%, v/v) is used to separate the analytes on Eclipse plus C18 column (4.6 mm × 100 mm, 1.8 µm) with a guard C18 column (2.1 mm × 12.5 mm, 5 µm). The gradient of elution is as follows: 5%–60% A at 0 to 4 min, 60%–70% A at 4 to 5 min, 70%–93% A at 5 to 7 min, 93%–94% A at 7 to 11 min, 94%–5% A at 11 to 12 min, and 5%–5% A at 12 to 17 min. The flow rate and injection volume are 0.3 ml·min^-1 and 5 µl, respectively. The main parameters of ion source including the ion spray voltage, the curtain gas, and temperature are set at 5000 V, 35 psi, and 450°C, respectively.
The real plasma sample (100 µl) and IS solution (10 µl) were vortex-mixed for 1 min. The sample was carried out with the SPE column (Cleanert PEP-2, 40–60 µm, 60 Å, 10 mg/1 ml; Phenomenex, Torrance, CA, USA). First, SPE columns were activated by 50% methanol in water (1 ml) and 0.1% formic acid in water (1 ml) and were used to activate the SPE column in sequence. Second, columns were washed with 200 µl methanol (20%, v/v) and eluted with acetonitrile (400 µl) after the plasma samples were added. Finally, the eluent was centrifuged for 10 min with 14,000 rpm. Then final solutions were injected into the HPLC-MS/MS and analyzed.
The pharmacokinetic study was conducted in accordance with the Guidelines for the Care and Use of Laboratory Animals by the US National Institutes of Health and approved by the Animal Ethics Committee of Tianjin University of Traditional Chinese Medicine (permit number: TCM-LAEC2019022, Tianjin, China),. Male Sprague-Dawley rats (240–260 g) were fed in the animal laboratory of the Tianjin University of Traditional Chinese Medicine under the standard conditions. These rats were allowed free to get standard laboratory food and water and conformed for 1 week until 12 h before experiment. These rats (n = 10) were fasted, although they were still given water for 12 h, before the oral administration of lotus leaf extract. […] The plasma samples were centrifuged in 10 min at 7000 rpm and kept at −20°C until analyzed.
All of the pharmacokinetic parameters were calculated by one compartment model with DAS 1.0 software (Medical College of Wannan). The maximum drug concentration (Cmax) and the time to reach Cmax (Tmax) were acquired from observed concentration–time profile for oral administration in plasma. All data were shown as mean ± SD.

Remain, freeze thaw cycles [1]: 103%
Remain, freeze thaw cycles ([1]; 1 ng/ml): 107%
Remain, freeze thaw cycles ([1]; 20 ng/ml): 111%
Remain, freeze thaw cycles ([1]; 100 ng/ml): 85.2%
Remain, −80°C for 1 month [1]: 109%
Remain, −80°C for 1 month ([1]; 1 ng/ml): 107%
Remain, −80°C for 1 month ([1]; 20 ng/ml): 113%
Remain, −80°C for 1 month ([1]; 100 ng/ml): 107%
Remain, autosampler for 24 h [1]: 87.6%
Remain, room temperature for 24 h [1]: 91.5%
Remain, autosampler for 24 h ([1]; 1 ng/ml): 90.8%
Remain, room temperature for 24 h ([1]; 1 ng/ml): 104%
Remain, autosampler for 24 h ([1]; 20 ng/ml): 114%
Remain, room temperature for 24 h ([1]; 20 ng/ml): 118%
Remain, autosampler for 24 h ([1]; 100 ng/ml): 87.4%
Remain, room temperature for 24 h ([1]; 100 ng/ml): 110%
Remain, working solution ([2]; 1 ng/ml): 98.8%
Remain, working solution ([2]; 20 ng/ml): 95.8%
Remain, working solution ([2]; 100 ng/ml): 101%
Remain, working solution ([2]; concentration LLOQ, from stock kept at 4°C for 2 weeks): 96.3%
AUC ([3]; male, Sprague-Dawley, 2.4 g/kg): 28.6 ± 16.5 ng·h/mL
AUC(0-inf) ([3]; male, Sprague-Dawley, 2.4 g/kg): 53.8 ± 34.6 ng·h/mL
Cmax ([3]; male, Sprague-Dawley, 2.4 g/kg): 8.78 ± 7.78 ng/mL
MRT ([3]; male, Sprague-Dawley, 2.4 g/kg): 7.23 ± 1.93 h
MRT inf ([3]; male, Sprague-Dawley, 2.4 g/kg): 31.9 ± 25.9 h
Tmax ([3]; male, Sprague-Dawley, 2.4 g/kg): 0.3 ± 0.11 h
half-life ([3]; male, Sprague-Dawley, 2.4 g/kg): 5.22 ± 5.09 h
Absorption after orally administrating the lotus leaf extract (in words) [3]: fast absorption
SMILES: COc1cc2c(cc1OC)C(Cc1ccc(O)cc1)N(C)CC2 (centres unmarked) [Armepavine, armepavine]

Remain, stock solution ([2]; stock solution kept at 4°C for 2 weeks): 114%
SMILES: COc1cc2c(cc1OC)-c1cc3ccc(OC)c(OC)c3c[n+]1CC2 [IS, palmatine chloride, reference compound]

Reference: publication PMC6817585, “Simultaneous Determination of Five Alkaloids by HPLC-MS/MS Combined With Micro-SPE in Rat Plasma and Its Application to Pharmacokinetics After Oral Administration of Lotus Leaf Extract” (Frontiers in Pharmacology, 2019)
